Data on 7 compounds can be found in patent US6448262B1, “Pesticidal and parasiticidal use of 2-(substituted thio) thiazolo-[4,5-b]pyridine compounds” (American Cyanamid Company, priority 1998, dated 2002).

Where two headings read alike, the source gives them in different places.

What all share (type): in vivo
The test system of series [1] is Aphis gossypii, cotton aphid. The series is described as follows: Cotton aphid (CA) cotyledon dip test. The note with it: 300 ppm; mortality counts after 5 days. From the text: (§1) Subsequent dilutions are made with water as needed.
Aphis gossypii, Cotton Aphid (CA)
Cotton plants at the cotyledon stage are selected and cut back to one plant per pot. A heavily infested leaf is taken from the main colony and placed on top of each cotyledon. The aphids are allowed to transfer to the host plant overnight. At the time of test treatment, the leaf used to transfer the aphids is removed and discarded. The cotyledons are dipped in the test solution and allowed to dry. After 5 days, mortality counts are made.

Series [2] has as its system Spodoptera eridania, eggs-southern armyworm. Briefly: Southern armyworm eggs (SAW-Eggs) treated diet test. The conditions noted are these: 3000 ppm; mortality counts after 7 days. As for the experimental part:
as §1
(§2) Spodoptera eridania, Eggs-southern Armyworm and Diabrotica undecimpunctata howardi, Eggs-southern Corn Rootworm (SAW-Eggs) and (SCR-Eggs)
(§3) Wells containing artificial diet are treated with the test solutions and dried. The appropriate insect eggs are then placed in the wells. The wells are covered with vented, adhesive, clear plastic covers. After 7 days, mortality counts are made.

For series [3], the system named is Spodoptera eridania, 2nd instar larvae, southern armyworm. Briefly: Southern armyworm (SAW) 2nd instar larvae leaf dip test. The note with it: 300 ppm; observations at 5 days.
From the text: as §1
Spodoptera eridania, 2nd Instar Larvae, Southern Armyworm (SAW)
A Sieva lima bean leaf expanded to 7-8 cm in length is dipped in the test solution with agitation for 3 seconds and allowed to dry in a hood. The leaf is then placed in a 100×10 mm petri dish containing a damp filter paper on the bottom and ten 2nd instar caterpillars. At 5 days, observations are made of mortality, reduced feeding, or any interference with normal molting.

For series [4], the system named is Diabrotica virgifera virgifera Leconte, 2nd instar western corn rootworm. The series is described as follows: Western corn rootworm (WCR) soil jar test. The note with it: 50 ppm; mortality counts after 5 days. As for the experimental part: as §1
Diabrotica virgifera virgifera Leconte, 2nd Instar Western Corn Rootworm (WCR)
One cc of fine talc is placed in a 30 mL wide-mouth screw-top glass jar. One mL of the appropriate acetone test solution is pipetted onto the talc so as to provide 1.25 mg of active ingredient per jar. The jars are set under a gentle air flow until the acetone is evaporated. The dried talc is loosened, 1 cc of millet seed is added to serve as food for the insects and 25 mL of moist soil is added to each jar. The jar is capped and the contents thoroughly mixed mechanically. Following this, ten 2nd instar rootworms are added to each jar and the jars are loosely capped to allow air exchange for the larvae. The treatments are held for 5 days when mortality counts are made. Missing larvae are presumed dead, since they decompose rapidly and cannot be found. The concentrations of active ingredient used in this test correspond approximately to 50 kg/ha.

Series [5] concerns Lucilia serricata first instar blowfly larvae. Briefly: Ectoparasiticide evaluation in Lucilia serricata. The note with it: rate 100 ppm; for mortality at 100 ppm: Lucilia. As for the experimental part:
Ectoparasiticide Evaluation of Test Compounds in Lucilia serricata
The test compound is dissolved in acetone to a concentration of 100 ppm. 200 μL is added to three 12 mm filter paper disks in 128 well assay trays and allowed to dry. Approximately 20 first instar blowfly larvae and 200 μL bovine serum are added to the disks. Wells are covered with plastic lids and incubated at about 27° C. Mortality is determined at 24 and 48 hours.

Series [6] deals with Tetranychus urticae (OP-resistant strain), 2-spotted spider mite. Briefly: 2-spotted spider mite (TSM) plant dip test. The conditions noted are these: 300 ppm; mortality counts after 2 days. As for the experimental part:
as §1
Tetranychus urticae (OP-resistant Strain), 2-spotted Spider Mite (TSM)
Sieva lima bean plants with primary leaves expanded to 7-8 cm are selected and cut back to one plant per pot. A small piece is cut from an infested leaf taken from the main colony and placed on each leaf of the test plants. This is done about 2 hours before treatment to allow the mites to move over to the test plant to lay eggs. The size of the cut, infested leaf is varied to obtain about 100 mites per leaf. At the time of test treatment, the piece of leaf used to transfer the mites is removed and discarded. The newly-infested plants are dipped in the test solution for 3 seconds with agitation and set in the hood to dry. After 2 days, one leaf is removed and mortality counts are made.

Series [7] has as its system Diabrotica undecimpunctata howardi, eggs-southern corn rootworm. The series is described as follows: Southern corn rootworm eggs (SCR-Eggs) treated diet test. The note with it: 1000 ppm; mortality counts after 7 days. The method, then: as §1, §2, §3
The next series concerns C. elegans. The series is described as follows: Evaluation of test compounds against C. elegans. Also on record: key: 9: complete kill in 4 hours; 8: complete kill in 24 hours; 7: markedly reduced motility in approximately 95% of worms in 24 hours; 0: normal motility, same as controls. The conditions noted are these: 300 ppm; observed at 4 and 24 hours post-immersion. As for the experimental part:
Evaluation of Test Compounds Against C. elegans Cultures of C. elegans (Bristol strain from J. Lewis) are maintained on E. coli lawns on NG Agar Plates at […]. New cultures are established weekly. Nematodes for testing are washed from cultures using Na buffer. Compounds are dissolved in 80% acetone. The test material is micropipetted (25 μl) into a single well of a 96-well sterile tissue culture plate and the solvent allowed to evaporate. A freshly prepared volume (50 μl) of C. elegans in Na buffer is micropipetted into each treated well and several control wells per plate. Plates are incubated at 20° C. Observations for efficacy are made under a dissecting microscope at 4 and 24 hours post-immersion. Immediately prior to reading the plate, it is gently tapped to stimulate the movement of the worms. Activity is judged subjectively, but semi-quantitatively, based on the drug effects on motility of the adults and larvae.

Series [8] concerns Root-knot nematode, Meloidogyne incognita. The conditions noted are these: potted tomato, scored 4 weeks after inoculation. The source says:
Soil Nematicide Assay Targeting Root-knot Nematode, Meloidogyne incognita on Potted Tomato
The test compound is solubilized in acetone and diluted with water to the required test concentration. Silty loam soil in a 3 inch pot with a 3-week-old tomato transplant is drenched with the test solution. Four thousand root-knot nematode Meloidogyne incognita J2 larvae are dispensed in a aqueous suspension onto the soil. The pots are kept in the greenhouse and 4 weeks following inoculation of the pots, plant roots are washed free of soil and scored for the degree of root galling using the root-knot galling index identified below.

The mark [9] stands for this setting: 24 hr, read-out: Percent Mortality 24 hr.
The mark [10] stands for this setting: 48 hr, read-out: Percent Mortality 48 hr.

`FC(F)Sc1nc2ncccc2s1` [Example 8, 2-[(Difluoromethyl)thio]thiazolo[4,5-b]pyridine]: the CA rating in series [1] amounted to 3. Besides, in [2], the “SAW Eggs rating” value is 9. In addition, the SAW rating in series [3] worked out at 0. Besides, the WCR rating in series [4] was 9. Moreover, the mortality at 100 ppm in [5] (setting [9]) and in series [5] (setting [10]) was 0% each time. In [6], this compound yielded a TSM rating of 8. Besides, in [7], the “SCR Eggs rating” value is 9.

In [1], `CCOC(=O)CSc1nc2ncccc2s1` [Example 5] showed a CA rating of 0. In [3], this compound returned an SAW rating of 0. The WCR rating in [4] is reported as 0. In the series with C. elegans, the “C. elegans activity rating (motility of adults and larvae)” value (“C. elegans activity rating” for short) was determined as 9. The TSM rating in series [6] was 0. Further, in [7], the “SCR Eggs rating” value was 0.

`FC(F)=C(F)CCSc1nc2ncccc2s1` [Example 1, 2-[(4,4,3-Trifluoro-3-butenyl)thio]thiazolo[4,5-b]pyridine] returned a CA rating in series [1] of 0. Moreover, the “SAW Eggs rating” value in [2] stood at 8. In [3], this compound had an SAW rating of 0. The WCR rating in series [4] is on record as 0. Besides, the mortality at 100 ppm in [5] (setting [9]) and in [5] (setting [10]) was 100% throughout. Besides, the “C. elegans activity rating” value in the series on C. elegans worked out at 7. In series [6], this compound came in with a TSM rating of 0. The entries for the “Galling Index” value in [8] (rate 10 ppm soil drench), in [8] (rate 25 ppm soil drench) and in series [8] (rate 50 ppm soil drench) were 0 (0), 0^1 (0) and 0^1 (0), respectively. Further, the “SCR Eggs rating” value in series [7] is 9.

With `COC(=O)CSc1nc2ncccc2s1` [Example 4], in [1], the CA rating came to 0. The “SAW Eggs rating” value in series [2] is given as 0. In series [3], this compound displayed an SAW rating of 0. The compound further had a WCR rating in series [4] of 0. The “C. elegans activity rating” value in the series on C. elegans was 9. In addition, the TSM rating in [6] stood at 0. Besides, in [7], the “SCR Eggs rating” value worked out at 0.

Compound `CCOC(=O)C(C)Sc1nc2ncccc2s1` (centres unmarked) [Example 6] registered a CA rating in series [1] of 0. For the same compound, in series [2], the “SAW Eggs rating” value was 9. In series [3], the SAW rating came out at 0. In addition, the WCR rating in series [4] is 0. For the same compound, the “Percent Mortality 24 hr” value in series [5] (24 hr) was 0%. Besides, in [5] (48 hr), the “Percent Mortality 48 hr” value is 0%. For the same compound, in the series on C. elegans, the “C. elegans activity rating” value amounted to 9. In series [6], this compound showed a TSM rating of 0. Moreover, the “SCR Eggs rating” value in series [7] is reported as 0.

For `C=CCSc1nc2ncccc2s1` [Example 2], the CA rating in [1] is recorded as 0. Also, in [2], the “SAW Eggs rating” value came out at 0. The same compound yielded an SAW rating in series [3] of 0. This compound also yielded a WCR rating in [4] of 1. Also, the “Percent Mortality 24 hr” value in series [5] (24 hr) was 0%. Also, the “Percent Mortality 48 hr” value in [5] (48 hr) was found to be 0%. For the same compound, the “C. elegans activity rating” value in the series on C. elegans is 0. The TSM rating in [6] is reported as 0. In series [7], the “SCR Eggs rating” value was found to be 0.

`FC(F)(Br)Sc1nc2ncccc2s1` [Example 7, 2-[(Bromodifluoromethyl)thio]thiazolo[4,5-b]pyridine] yielded a CA rating in series [1] of 0. The “SAW Eggs rating” value in series [2] turned out to be 9. In series [3], this compound showed an SAW rating of 0. In [4], this compound displayed a WCR rating of 9. The mortality at 100 ppm turned out to be 80% in [5] (setting [9]) and 100% in series [5] (setting [10]). In addition, the TSM rating in [6] is 5. For the same compound, the “SCR Eggs rating” value in [7] is recorded as 9.
